From ChEMBL document CHEMBL1201862, “PubChem BioAssay data set” (2004) come the findings set out here.

Test systems include SK-MEL-5; SNB-75; HCT-15; HL-60; HCC 2998; MDA-MB-435; A498; EKVX; SK-MEL-28; MCF7; NCI-H460; NCI/ADR-RES; SN12C; SK-OV-3; DU-145; NCI-H226; KM12; OVCAR-8; NCI-H522.
Holding throughout (test): inhibition of tumour cell growth, NCI panel, 48 h

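In this assay, cells in 96-well plates receive the compound at five concentrations for 48 hours. Endpoints are linearly interpolated between the surrounding concentrations. At the GI50, growth is halved.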 The source made the active and inactive calls. Cut-off read from the data, not from the text of the source: active = GI50 up to about 1.1 µM and inactive = higher.

For the molecule `Nc1ccccc1CC(O)C(=O)O` (stereo not drawn), the GI50 with SK-MEL-5 is > 100 µM (inactive); in the test on SNB-75 it was > 100 µM (inactive); with HCT-15, above 100 µM; with HL-60, > 100 µM (inactive); with HCC 2998 it was > 100 µM (inactive); in the test on MDA-MB-435, > 100 µM (inactive). In addition, the GI50 with A498, in the test with EKVX, with SK-MEL-28, with MCF7, in the test with NCI-H460 and with NCI/ADR-RES was > 100 µM (inactive) each time. In addition, the GI50 in the test on SN12C, with SK-OV-3, in the test with DU-145, in the test with NCI-H226, with KM12 and in the test with OVCAR-8 was > 100 µM (inactive) each time.

As for `[O-][Cl+3]([O-])([O-])[O-].[O-][Cl+3]([O-])([O-])[O-].c1ccn2c(N3CCCC3)[n+]3c4ccccc4n4c(N5CCCC5)[n+]5ccccc5c4c3c2c1`, the GI50 is 22.2 µM (inactive) in the test with SK-MEL-5; 18.7 µM (inactive) in the test on SNB-75; above 100 µM with HCT-15; > 100 µM (inactive) with HL-60; 78.3 µM (inactive) with HCC 2998; > 100 µM (inactive) in the test with MDA-MB-435. For the same molecule, the GI50 with A498 was > 100 µM (inactive); with EKVX, > 100 µM (inactive); with SK-MEL-28, > 100 µM (inactive); in the test with MCF7, 67.1 µM (inactive); with NCI-H460, 94.4 µM (inactive); in the test on NCI/ADR-RES, > 100 µM (inactive). Further, the GI50 with SN12C is 8 µM (inactive); in the test with DU-145, > 100 µM (inactive); in the test with NCI-H226, 0.745 µM (active); with KM12, 40.3 µM (inactive); with NCI-H522, 64.1 µM (inactive); in the test on OVCAR-8, 25.4 µM (inactive).

On to `C=CCNC1=C2C[C@@H](C)C[C@@H](OC)[C@H](OC(=O)CCCCN)[C@H](C)/C=C(\C)[C@@H](OC(N)=O)[C@H](OC)/C=C\C=C(/C)C(=O)NC(=CC1=O)C2=O`, for which the GI50 with SK-MEL-5 is 11.6 µM (inactive); in the test on SNB-75, 5.51 µM (inactive); in the test with HCT-15 it was 18.7 µM; in the test with HL-60, 11.7 µM (inactive); in the test with HCC 2998 it was 4.27 µM (inactive); in the test on MDA-MB-435, 12.8 µM (inactive). Moreover, the GI50 was 12.9 µM (inactive) with A498; 13.7 µM (inactive) with EKVX; 18.5 µM (inactive) in the test with SK-MEL-28; 3.77 µM (inactive) in the test with MCF7; 11.6 µM (inactive) in the test on NCI-H460; > 100 µM (inactive) in the test with NCI/ADR-RES. The GI50 in the test with SN12C was 13 µM (inactive); in the test on SK-OV-3 it was 6.31 µM (inactive); in the test on DU-145, 6.47 µM (inactive); in the test with KM12 it was 4.97 µM (inactive); in the test on NCI-H522 it was 13.6 µM (inactive); with OVCAR-8, 19.4 µM (inactive).

Turning to `CCCCc1ccc(-n2sc3ncc(-c4ccccc4)cc3c2=O)cc1`, the GI50 in the test on SK-MEL-5 is > 100 µM (inactive); in the test with SNB-75, > 100 µM (inactive); in the test with HCT-15, above 100 µM; in the test with HL-60, > 100 µM (inactive); in the test on HCC 2998, > 100 µM (inactive); with MDA-MB-435 it was > 100 µM (inactive). Besides, the GI50 in the test on A498, with EKVX, with SK-MEL-28, with MCF7, in the test on NCI-H460 and in the test on NCI/ADR-RES was > 100 µM (inactive) throughout. Moreover, the GI50 in the test on SN12C was > 100 µM (inactive); with SK-OV-3, > 100 µM (inactive); with DU-145, > 100 µM (inactive); in the test with NCI-H226, > 100 µM (inactive); in the test on KM12 it was > 100 µM (inactive); in the test on OVCAR-8, 43.2 µM (inactive).

In the case of `CC(=O)C(=[N+]=[N-])C(=O)N1CCOC1=O`, the GI50 was > 10 µM (inactive) with SK-MEL-5; > 10 µM (inactive) in the test on SNB-75; above 10 µM in the test with HCT-15; > 10 µM (inactive) in the test with HL-60; > 10 µM (inactive) in the test on HCC 2998; > 10 µM (inactive) in the test with MDA-MB-435. The GI50 in the test on A498, in the test with EKVX, in the test on SK-MEL-28, in the test with MCF7, with NCI-H460 and in the test with NCI/ADR-RES was > 10 µM (inactive) throughout. The GI50 in the test with SN12C, in the test with SK-OV-3, with DU-145, with NCI-H226, in the test on KM12 and in the test on OVCAR-8 was > 10 µM (inactive) throughout.

Turning to `O=c1[nH]c(=O)n(CCOCP(=O)(O)O)nc1Br`, the GI50 in the test with SK-MEL-5 was > 100 µM (inactive); in the test on SNB-75, > 100 µM (inactive); in the test on HCT-15 it was above 100 µM; with HL-60, > 100 µM (inactive); in the test on HCC 2998 it was > 100 µM (inactive); in the test with MDA-MB-435 it was > 100 µM (inactive). In addition, the GI50 in the test on A498, in the test with EKVX, in the test on SK-MEL-28, in the test on MCF7, in the test on NCI-H460 and in the test on NCI/ADR-RES was > 100 µM (inactive) in each case. In addition, the GI50 with SN12C, with DU-145, in the test with NCI-H226, in the test with KM12, in the test on NCI-H522 and with OVCAR-8 was > 100 µM (inactive) each time.

For `NCCNCCNc1ccc(NCCNCCN)c2c1C(=O)c1c(O)ccc(O)c1C2=O`, the GI50 with SK-MEL-5 is > 100 µM (inactive); with SNB-75 it was > 100 µM (inactive); in the test on HCT-15, above 100 µM; in the test on HCC 2998 it was > 100 µM (inactive); in the test with MDA-MB-435, > 100 µM (inactive); in the test with A498, 70 µM (inactive). The GI50 in the test on EKVX is > 100 µM (inactive); in the test with SK-MEL-28, > 100 µM (inactive); with MCF7 it was 59.7 µM (inactive); in the test on NCI-H460 it was 8.75 µM (inactive); in the test with NCI/ADR-RES, > 100 µM (inactive); in the test on SN12C, > 100 µM (inactive). Further, the GI50 with SK-OV-3, with DU-145, in the test with NCI-H226, in the test on KM12, in the test with NCI-H522 and with OVCAR-8 was > 100 µM (inactive) throughout.

Regarding `CNc1nc(=S)[nH]c2sc3c(c12)CCCC3`, the GI50 in the test with SK-MEL-5 is > 75 µM (inactive); in the test with SNB-75, > 75 µM (inactive); in the test on HCT-15, above 75 µM; with HL-60 it was > 75 µM (inactive); with HCC 2998, > 75 µM (inactive); in the test with MDA-MB-435, > 75 µM (inactive). Moreover, the GI50 with A498 was > 75 µM (inactive); in the test on EKVX, 45.1 µM (inactive); in the test with SK-MEL-28, > 75 µM (inactive); in the test with MCF7 it was > 75 µM (inactive); in the test on NCI/ADR-RES, > 75 µM (inactive); in the test with SN12C it was > 75 µM (inactive). Further, the GI50 in the test on DU-145, in the test with NCI-H226, with KM12, in the test on NCI-H522 and in the test on OVCAR-8 was > 75 µM (inactive) each time.
